# Measured values taken from patent publication US20120094998A1, “Oligomer-Protein Tyrosine Kinase Inhibitor Conjugates” (Nektar Therapeutics, priority 2009, published 2012).
# Experiments:
# PDGFRβ = PDGFRβ (Homo sapiens, UniProt P09619); experiment: Off-chip mobility-shift kinase assay (Caliper LABCHIP), PDGFR; details: for PDGFR AVG % Activity at 1.0E−06: concentration 1.0E−06; for PDGFR AVG % Activity at 1.0E−07: concentration 1.0E−07; for PDGFR AVG % Activity at 1.0E−08: concentration 1.0E−08; for PDGFR AVG % Activity at 1.0E−09: concentration 1.0E−09; for PDGFR AVG % Activity at 1.0E−10: concentration 1.0E−10; for PDGFR AVG % Activity at 3.0E−06: concentration 3.0E−06; for PDGFR AVG % Activity at 3.0E−07: concentration 3.0E−07; for PDGFR AVG % Activity at 3.0E−08: concentration 3.0E−08; for PDGFR AVG % Activity at 3.0E−09: concentration 3.0E−09; for PDGFR AVG % Activity at 3.0E−10: concentration 3.0E−10
# PDGFRβ, sequence (P09619 33-1106): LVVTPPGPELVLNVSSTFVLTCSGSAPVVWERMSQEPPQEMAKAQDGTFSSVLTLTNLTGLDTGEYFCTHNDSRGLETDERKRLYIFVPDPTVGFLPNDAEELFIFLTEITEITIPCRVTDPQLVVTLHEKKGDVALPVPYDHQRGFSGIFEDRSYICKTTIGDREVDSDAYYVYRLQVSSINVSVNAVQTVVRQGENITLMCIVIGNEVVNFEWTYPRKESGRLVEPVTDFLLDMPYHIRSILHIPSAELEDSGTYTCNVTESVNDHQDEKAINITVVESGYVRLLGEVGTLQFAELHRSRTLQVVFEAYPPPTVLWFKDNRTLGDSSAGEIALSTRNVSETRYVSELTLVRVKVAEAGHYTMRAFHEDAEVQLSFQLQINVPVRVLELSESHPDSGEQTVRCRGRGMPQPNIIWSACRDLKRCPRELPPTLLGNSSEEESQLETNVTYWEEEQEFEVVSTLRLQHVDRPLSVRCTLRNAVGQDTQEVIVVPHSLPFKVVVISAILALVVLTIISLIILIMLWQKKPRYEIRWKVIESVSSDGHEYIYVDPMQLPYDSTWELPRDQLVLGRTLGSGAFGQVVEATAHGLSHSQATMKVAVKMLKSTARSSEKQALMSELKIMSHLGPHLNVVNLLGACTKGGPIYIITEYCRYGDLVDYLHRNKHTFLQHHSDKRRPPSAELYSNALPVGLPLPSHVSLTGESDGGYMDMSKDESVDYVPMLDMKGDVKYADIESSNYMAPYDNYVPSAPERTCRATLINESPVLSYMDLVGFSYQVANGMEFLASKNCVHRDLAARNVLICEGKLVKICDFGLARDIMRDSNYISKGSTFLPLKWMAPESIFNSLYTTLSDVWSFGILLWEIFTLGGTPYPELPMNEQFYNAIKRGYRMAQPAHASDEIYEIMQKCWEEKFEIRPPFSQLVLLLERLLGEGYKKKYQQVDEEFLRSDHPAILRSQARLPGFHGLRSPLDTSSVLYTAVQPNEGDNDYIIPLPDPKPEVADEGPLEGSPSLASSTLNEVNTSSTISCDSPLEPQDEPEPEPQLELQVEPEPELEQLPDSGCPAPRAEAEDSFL
# Thermodynamic solubility = assay type: physicochemical; details: aqueous buffer, thermodynamic from solid; phosphate buffered saline, pH 7.4; ambient temperature overnight
# Procedure: Test compound (2.5 mg of solid; n=1) is weighed in a clear glass vial and buffer (0.5 mL) is added (phosphate buffered saline, pH 7.4). The solution is agitated at ambient temperature overnight using a vial roller system. […] Duplicate aliquots (50 μL) are sampled from the filtrate and diluted with one volume of 0.1 N hydrochloric acid and methanol (1:1 v/v) before analysis by HPLC-UV. […] The concentration of test compound in the filtrate is quantified relative to the concentration standard.
# Analysis is performed using a gradient HPLC-UV system with a total cycle time of six minutes.
# ABL = ABL (Homo sapiens, UniProt P00519); experiment: Off-chip mobility-shift kinase assay (Caliper LABCHIP), ABL; details: for ABL AVG % Activity at 1.0E−06: concentration 1.0E−06; for ABL AVG % Activity at 1.0E−06 / ABL AVG % Activity at 1.0E−07 / ABL AVG % Activity at 1.0E−08 / ABL AVG % Activity at 1.0E−09 / ABL AVG % Activity at 1.0E−10 / ABL AVG % Activity at 3.0E−06 / ABL AVG % Activity at 3.0E−07 / ABL AVG % Activity at 3.0E−08 / ABL AVG % Activity at 3.0E−09 / ABL AVG % Activity at 3.0E−10: imatinib-corresponding compounds; for ABL AVG % Activity at 1.0E−07: concentration 1.0E−07; for ABL AVG % Activity at 1.0E−08: concentration 1.0E−08; for ABL AVG % Activity at 1.0E−09: concentration 1.0E−09; for ABL AVG % Activity at 1.0E−10: concentration 1.0E−10; for ABL AVG % Activity at 3.0E−06: concentration 3.0E−06; for ABL AVG % Activity at 3.0E−07: concentration 3.0E−07; for ABL AVG % Activity at 3.0E−08: concentration 3.0E−08; for ABL AVG % Activity at 3.0E−09: concentration 3.0E−09; for ABL AVG % Activity at 3.0E−10: concentration 3.0E−10
# ABL, sequence (P00519 whole entry): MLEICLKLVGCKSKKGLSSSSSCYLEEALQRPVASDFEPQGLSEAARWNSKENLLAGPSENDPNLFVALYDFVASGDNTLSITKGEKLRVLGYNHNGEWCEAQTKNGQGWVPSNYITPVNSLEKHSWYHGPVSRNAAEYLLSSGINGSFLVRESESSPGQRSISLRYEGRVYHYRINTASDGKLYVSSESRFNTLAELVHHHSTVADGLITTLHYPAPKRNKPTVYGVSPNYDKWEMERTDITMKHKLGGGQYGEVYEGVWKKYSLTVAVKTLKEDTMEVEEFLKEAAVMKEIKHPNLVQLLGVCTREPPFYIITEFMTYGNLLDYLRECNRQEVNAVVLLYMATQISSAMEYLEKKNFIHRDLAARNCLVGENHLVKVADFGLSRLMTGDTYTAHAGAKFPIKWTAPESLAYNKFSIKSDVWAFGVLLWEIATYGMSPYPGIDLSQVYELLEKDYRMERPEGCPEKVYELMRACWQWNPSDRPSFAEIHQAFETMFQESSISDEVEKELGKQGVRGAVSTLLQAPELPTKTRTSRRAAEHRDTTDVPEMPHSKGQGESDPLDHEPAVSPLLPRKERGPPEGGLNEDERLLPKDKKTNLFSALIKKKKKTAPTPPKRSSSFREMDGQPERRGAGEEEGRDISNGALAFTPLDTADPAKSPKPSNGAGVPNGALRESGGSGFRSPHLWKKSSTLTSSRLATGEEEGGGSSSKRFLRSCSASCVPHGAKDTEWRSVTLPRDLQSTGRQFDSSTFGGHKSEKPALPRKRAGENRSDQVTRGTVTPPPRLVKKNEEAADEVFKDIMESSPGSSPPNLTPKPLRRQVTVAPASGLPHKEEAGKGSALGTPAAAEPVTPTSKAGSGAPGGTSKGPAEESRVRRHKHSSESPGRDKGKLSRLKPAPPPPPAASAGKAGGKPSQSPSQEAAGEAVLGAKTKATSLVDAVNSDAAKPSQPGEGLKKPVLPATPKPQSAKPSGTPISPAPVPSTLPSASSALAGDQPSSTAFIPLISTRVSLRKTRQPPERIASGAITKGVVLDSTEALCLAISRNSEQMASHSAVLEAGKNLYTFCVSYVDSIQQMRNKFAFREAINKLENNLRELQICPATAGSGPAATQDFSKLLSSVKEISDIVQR
# [1] = Caco-2 permeability (bi-directional; pH 7.4/pH 7.4); assay type: in vitro ADME; details: human; for Papp A→B at 120 min, 10 μM: Caco-2, pH 7.4, read-out: Permeability (cm^2/s × 10^6); for efflux ratio at 120 min, 10 μM: Caco-2, ratio of B-A and A-B permeabilities
# Procedure: Caco-2 cells are used as an in vitro model of the human intestinal epithelium and permit assessment of the intestinal permeability of potential drugs. Test compound is added to either the apical or basolateral side of a confluent monolayer of Caco-2 cells and permeability is measured by monitoring the appearance of the test compound on the opposite side of the membrane using LC-MS/MS. Apparent permeability (Papp) coefficients, efflux ratio for the test compound and recovery values were determined.
# To measure the permeability of test compound in the apical to basolateral (A-B) and basolateral to apical (B-A) direction across Caco-2 cells.
# Caco-2 cells obtained from the ATCC are used between passage numbers 40-60. Cells are seeded on to Millipore Multiscreen Caco-2 plates at 1×10^5 cells/cm^2. They are cultured for 20 days in DMEM and media is changed every two or three days. On day 20 the permeability study is performed.
# On day 20, the monolayers are prepared by rinsing both basolateral and apical surfaces twice with HBSS at 37° C. Cells are then incubated with HBSS in both apical and basolateral compartments for 40 min to stabilize physiological parameters. HBSS is then removed from the apical compartment and replaced with test compound dosing solutions. […] The fluorescent integrity marker lucifer yellow is also included in the dosing solution. Analytical standards are made from dosing solutions. The apical compartment inserts are then placed into ‘companion’ plates containing fresh HBSS. For basolateral to apical (B-A) permeability determination the experiment is initiated by replacing buffer in the inserts then placing them in companion plates containing dosing solutions. At 120 minutes the companion plate is removed and apical and basolateral samples diluted for analysis by LC-MS/MS. Test compound permeability was assessed in duplicate. On each plate, compounds of known permeability characteristics were run as controls.
# Test and control compounds were quantified by LC-MS/MS cassette analysis using a 5-point calibration with appropriate dilution of the samples. Cyprotex generic analytical conditions were used. The starting concentration (C0) and experimental recovery were calculated from both apical and basolateral compartment concentrations.
# The integrity of the monolayers throughout the experiment was checked by monitoring lucifer yellow permeation using fluorimetric analysis. Lucifer yellow permeation is low if monolayers have not been damaged. […] If lucifer yellow Papp values are above QC limits in both replicate wells for a test compound, the compound was re-tested.
# Data Analysis: The permeability coefficient for each compound (Papp) is calculated from the following equation: […]
# wherein dQ/dt is the rate of permeation of the drug across the cells, C0 is the donor compartment concentration at time zero and A is the area of the cell monolayer. C0 is obtained from analysis of donor and receiver compartments at the end of the incubation period. It is assumed that all of the test compound measured after 120 minutes incubation was initially present in the donor compartment at 0 minutes. An efflux ratio (ER) is derived as follows:
# Talinolol (a known P-gp substrate) is also included as a control compound to assess whether functional P-gp is present in the Caco-2 cell monolayer.
# cKIT = cKIT (Homo sapiens, UniProt P10721); experiment: Off-chip mobility-shift kinase assay (Caliper LABCHIP), C-kit; details: for C-kit AVG % Activity at 1.0E−05: concentration 1.0E−05; for C-kit AVG % Activity at 1.0E−06: concentration 1.0E−06; for C-kit AVG % Activity at 1.0E−07: concentration 1.0E−07; for C-kit AVG % Activity at 1.0E−08: concentration 1.0E−08; for C-kit AVG % Activity at 3.0E−05: concentration 3.0E−05; for C-kit AVG % Activity at 3.0E−06: concentration 3.0E−06; for C-kit AVG % Activity at 3.0E−07: concentration 3.0E−07; for C-kit AVG % Activity at 3.0E−08: concentration 3.0E−08; for C-kit AVG % Activity at 3.0E−09: concentration 3.0E−09
# cKIT, sequence (P10721 26-976): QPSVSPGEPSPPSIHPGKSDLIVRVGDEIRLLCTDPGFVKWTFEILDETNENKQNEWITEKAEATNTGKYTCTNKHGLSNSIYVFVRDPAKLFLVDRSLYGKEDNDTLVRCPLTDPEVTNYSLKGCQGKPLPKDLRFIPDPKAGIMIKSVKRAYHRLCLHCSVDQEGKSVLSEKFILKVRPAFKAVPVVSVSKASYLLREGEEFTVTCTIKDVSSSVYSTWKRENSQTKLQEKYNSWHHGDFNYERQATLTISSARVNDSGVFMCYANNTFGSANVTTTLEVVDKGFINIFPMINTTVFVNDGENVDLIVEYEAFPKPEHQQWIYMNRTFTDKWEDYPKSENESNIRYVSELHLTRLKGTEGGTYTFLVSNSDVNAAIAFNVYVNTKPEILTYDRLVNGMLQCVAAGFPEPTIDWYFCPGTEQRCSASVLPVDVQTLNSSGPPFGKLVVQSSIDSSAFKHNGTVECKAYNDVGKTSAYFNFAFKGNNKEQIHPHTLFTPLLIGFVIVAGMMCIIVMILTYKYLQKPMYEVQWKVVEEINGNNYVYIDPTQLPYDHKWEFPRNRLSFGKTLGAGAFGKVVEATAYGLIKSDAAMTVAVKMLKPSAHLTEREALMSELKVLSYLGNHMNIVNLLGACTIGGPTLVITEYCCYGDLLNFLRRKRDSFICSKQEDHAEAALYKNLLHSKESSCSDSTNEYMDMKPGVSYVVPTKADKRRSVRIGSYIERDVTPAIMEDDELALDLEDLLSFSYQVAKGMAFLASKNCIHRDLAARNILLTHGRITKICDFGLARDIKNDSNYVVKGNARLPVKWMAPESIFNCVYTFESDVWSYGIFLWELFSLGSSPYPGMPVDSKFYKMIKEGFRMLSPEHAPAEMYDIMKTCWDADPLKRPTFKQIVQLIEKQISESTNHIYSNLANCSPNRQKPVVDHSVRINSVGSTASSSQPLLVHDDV
IC50 (PDGFRβ),PDGFR AVG % Activity at 1.0E−06 (PDGFRβ),PDGFR AVG % Activity at 1.0E−07 (PDGFRβ),PDGFR AVG % Activity at 1.0E−08 (PDGFRβ),PDGFR AVG % Activity at 1.0E−09 (PDGFRβ),PDGFR AVG % Activity at 1.0E−10 (PDGFRβ),PDGFR AVG % Activity at 3.0E−06 (PDGFRβ),PDGFR AVG % Activity at 3.0E−07 (PDGFRβ),PDGFR AVG % Activity at 3.0E−08 (PDGFRβ),PDGFR AVG % Activity at 3.0E−09 (PDGFRβ),PDGFR AVG % Activity at 3.0E−10 (PDGFRβ),solubility (Thermodynamic solubility),IC50 (ABL),ABL AVG % Activity at 1.0E−06 (ABL),ABL AVG % Activity at 1.0E−07 (ABL),ABL AVG % Activity at 1.0E−08 (ABL),ABL AVG % Activity at 1.0E−09 (ABL),ABL AVG % Activity at 1.0E−10 (ABL),ABL AVG % Activity at 3.0E−06 (ABL),ABL AVG % Activity at 3.0E−07 (ABL),SMILES,other results
340 nM,13%,74%,95%,99%,92%,0%,48%,86%,100%,95%,2500 µg/mL,3800 nM,69%,84%,93%,97%,97%,49%,79%,COCCOCCOCCOCCOCCOCCOCCOCCOCCN1CCN(Cc2ccc(C(=O)Nc3ccc(C)c(Nc4nccc(-c5cccnc5)n4)c3)cc2)CC1 [mPEG9-N′-Imatinib],"ABL AVG % Activity at 3.0E−08 (ABL): 89%; ABL AVG % Activity at 3.0E−09 (ABL): 96%; ABL AVG % Activity at 3.0E−10 (ABL): 97%; Papp A→B at 120 min, 10 μM [1]: 0.05 ± 0.02 ×10⁻⁶ cm/s; efflux ratio at 120 min, 10 μM [1]: 359; IC50 (cKIT): 550 nM; C-kit AVG % Activity at 1.0E−05 (cKIT): 2%; C-kit AVG % Activity at 1.0E−06 (cKIT): 35%; C-kit AVG % Activity at 1.0E−07 (cKIT): 82%; C-kit AVG % Activity at 1.0E−08 (cKIT): 91%; C-kit AVG % Activity at 3.0E−05 (cKIT): 0%; C-kit AVG % Activity at 3.0E−06 (cKIT): 12%; C-kit AVG % Activity at 3.0E−07 (cKIT): 64%; C-kit AVG % Activity at 3.0E−08 (cKIT): 92%; C-kit AVG % Activity at 3.0E−09 (cKIT): 95%"
230 nM,13%,67%,96%,93%,97%,0%,39%,100%,99%,93%,3600 µg/mL,≥ 3000 nM,73%,90%,94%,97%,97%,59%,82%,COCCOCCOCCOCCOCCOCCOCCNCc1ccc(C(=O)Nc2ccc(C)c(Nc3nccc(-c4cccnc4)n3)c2)cc1,"ABL AVG % Activity at 3.0E−08 (ABL): 94%; ABL AVG % Activity at 3.0E−09 (ABL): 96%; ABL AVG % Activity at 3.0E−10 (ABL): 97%; Papp A→B at 120 min, 10 μM [1]: 0.04 ± 0.01 ×10⁻⁶ cm/s; efflux ratio at 120 min, 10 μM [1]: 391; IC50 (cKIT): 1000 nM; C-kit AVG % Activity at 1.0E−05 (cKIT): 6%; C-kit AVG % Activity at 1.0E−06 (cKIT): 50%; C-kit AVG % Activity at 1.0E−07 (cKIT): 88%; C-kit AVG % Activity at 1.0E−08 (cKIT): 100%; C-kit AVG % Activity at 3.0E−05 (cKIT): 1%; C-kit AVG % Activity at 3.0E−06 (cKIT): 23%; C-kit AVG % Activity at 3.0E−07 (cKIT): 76%; C-kit AVG % Activity at 3.0E−08 (cKIT): 95%; C-kit AVG % Activity at 3.0E−09 (cKIT): 99%"
310 nM,18%,76%,91%,98%,95%,0%,43%,91%,93%,100%,3000 µg/mL,≥ 3000 nM,69%,83%,92%,96%,96%,52%,78%,COCCOCCOCCOCCOCCOCCOCCN1CCN(Cc2ccc(C(=O)Nc3ccc(C)c(Nc4nccc(-c5cccnc5)n4)c3)cc2)CC1 [mPEG7-N′-Imatinib],"ABL AVG % Activity at 3.0E−08 (ABL): 88%; ABL AVG % Activity at 3.0E−09 (ABL): 96%; ABL AVG % Activity at 3.0E−10 (ABL): 97%; Papp A→B at 120 min, 10 μM [1]: 0.3 ± 0.01 ×10⁻⁶ cm/s; efflux ratio at 120 min, 10 μM [1]: 75.7; IC50 (cKIT): 2500 nM; C-kit AVG % Activity at 1.0E−05 (cKIT): 16%; C-kit AVG % Activity at 1.0E−06 (cKIT): 69%; C-kit AVG % Activity at 1.0E−07 (cKIT): 91%; C-kit AVG % Activity at 1.0E−08 (cKIT): 95%; C-kit AVG % Activity at 3.0E−05 (cKIT): 4%; C-kit AVG % Activity at 3.0E−06 (cKIT): 44%; C-kit AVG % Activity at 3.0E−07 (cKIT): 84%; C-kit AVG % Activity at 3.0E−08 (cKIT): 97%; C-kit AVG % Activity at 3.0E−09 (cKIT): 95%"
